Test results as given in patent US20250032514A1, “COMPOSITIONS AND METHODS FOR THE TREATMENT OF VARIOUS DISEASES” (Amylyx Pharmaceuticals, Inc., priority 2023, published 2025).
Like-named read-outs stand apart in the source and are kept apart here.

Columns and labels:
[1] = Study A35-002: single-dose PK of AMX0035, fasted vs high-fat meal, two-period cross-over; format: in vivo, human; conditions: for half-life: both sexes, human, plasma
Protocol: The pharmacokinetics (PK) of PB and TURSO after a single dose administration of AMX0035 were determined in adult (40 to 55 years of age) male and female normal healthy participants. Fourteen participants received a single dose of AMX0035 on two occasions (with a washout between periods of no less than 4 days), after fasting or after a high-fat standardized meal in a balanced, two-period, cross-over design (Study A35-002).
Clearance is rapid, and the terminal half-life (t1/2) is less than 1 hour. […] The primary metabolite of PB is phenylacetate (PAA), which occurs endogenously as a phenylalanine metabolite. […] Many participants had two or three peaks of absorption, which is consistent with bile acid storage and release upon a meal/snack. […] The primary metabolites of TURSO include ursodeoxycholic acid (UDCA) and glycoursodeoxycholic acid (GUDCA). All three are naturally occurring hydrophilic bile acids and subject to extensive enterohepatic recirculation.

[2] = tested on: G93A SOD1 mouse model of ALS; conditions: cited from earlier work
[3] = in vivo; cited from earlier work
[4] = single oral dose of AMX0035, healthy adults

SMILES | half-life ([1]; oral, under both the fed and fasted condition, read-out: terminal half-life (converted)) [h] | half-life ([1]; single oral dose of AMX0035, healthy adults, read-out: terminal half-life (t1/2)) [h] | absorption in the presence of a high-fat meal ([1]; high-fat meal vs fasted) | overall exposure in the presence of a high-fat meal ([1]; high-fat meal vs fasted) | absorption of PB [1, 4] | clearance [1, 4] | survival in in vivo models [2] | half-life ([1]; oral, fasting, read-out: terminal t1/2 (average) (converted)) [h] | terminal t1/2 (average) ([1]; fed) [h] | absorption of TURSO ([1]; given with or without food) | Cmax in the presence of a high-fat meal ([1]; high-fat meal vs fasted) | increase in exposure as AUC0-last in the presence of a high-fat meal ([1]; high-fat meal vs fasted) | most common adverse reactions reported (≥1%) [3]
O=C(O)CCCc1ccccc1 [PB, sodium phenylbutyrate] | ~0.5 | < 1 | significantly slower | lower | rapidly absorbed | rapid | increase survival | – | – | – | – | – | –
C[C@H](CCC(=O)NCCS(=O)(=O)O)[C@H]1CC[C@H]2[C@@H]3[C@@H](O)C[C@@H]4C[C@H](O)CC[C@]4(C)[C@H]3CC[C@]12C [TURSO, taurursodiol] | – | – | – | – | – | – | – | 4.8 | 3.6 | slowly absorbed | similar | less than 1 fold | abdominal discomfort, abdominal pain, diarrhea, nausea, pruritus, and rash
